Experimental data taken from ChEMBL document CHEMBL1201862, “PubChem BioAssay data set” (2004).
The source made the active and inactive calls.

What was measured:
[1] = target: T1, High affinity choline transporter 1 (Homo sapiens, UniProt Q9GZV3); test: human choline transporter blockers, potency – cell-based, 5-point CRC, membrane potential dye, dose response (AID 504840); type: functional
T1 sequence (Q9GZV3 whole entry): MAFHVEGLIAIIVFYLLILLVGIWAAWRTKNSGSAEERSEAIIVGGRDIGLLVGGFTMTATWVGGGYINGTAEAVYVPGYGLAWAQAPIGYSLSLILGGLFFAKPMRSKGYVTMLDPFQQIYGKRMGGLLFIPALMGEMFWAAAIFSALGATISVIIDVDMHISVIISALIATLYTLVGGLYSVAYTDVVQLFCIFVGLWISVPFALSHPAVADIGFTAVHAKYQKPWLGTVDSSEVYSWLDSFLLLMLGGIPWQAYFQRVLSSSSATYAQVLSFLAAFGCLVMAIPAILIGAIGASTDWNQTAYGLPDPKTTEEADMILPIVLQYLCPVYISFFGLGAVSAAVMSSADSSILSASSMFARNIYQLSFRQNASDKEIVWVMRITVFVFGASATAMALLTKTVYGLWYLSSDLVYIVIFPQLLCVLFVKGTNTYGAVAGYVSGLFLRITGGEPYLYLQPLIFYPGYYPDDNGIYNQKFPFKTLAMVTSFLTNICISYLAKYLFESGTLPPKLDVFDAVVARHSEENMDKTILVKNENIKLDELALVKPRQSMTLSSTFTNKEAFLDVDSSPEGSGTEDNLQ

[2] = target: T2, Zinc finger protein mex-5 (Caenorhabditis elegans, UniProt Q9XUB2); test: potency of MEX-5 RNA-binding blockers – biochemical, C. elegans, fluorescence polarization, dose response (AID 1960)
T2 sequence (Q9XUB2 whole entry): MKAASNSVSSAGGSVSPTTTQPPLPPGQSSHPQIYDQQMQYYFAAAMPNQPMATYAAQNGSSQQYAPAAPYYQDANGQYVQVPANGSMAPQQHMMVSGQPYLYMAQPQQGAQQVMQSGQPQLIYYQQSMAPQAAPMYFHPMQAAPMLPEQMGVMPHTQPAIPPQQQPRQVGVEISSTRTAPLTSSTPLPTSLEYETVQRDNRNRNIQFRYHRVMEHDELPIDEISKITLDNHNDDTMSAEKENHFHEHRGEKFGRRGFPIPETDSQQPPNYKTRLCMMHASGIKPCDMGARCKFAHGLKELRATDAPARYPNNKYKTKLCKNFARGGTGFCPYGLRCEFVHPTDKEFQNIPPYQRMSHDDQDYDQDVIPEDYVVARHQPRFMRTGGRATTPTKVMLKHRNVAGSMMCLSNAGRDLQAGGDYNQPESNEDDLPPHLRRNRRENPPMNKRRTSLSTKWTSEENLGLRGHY

[3] = target: Ras and Rab interactor 1/Tyrosine-protein kinase ABL1 (Homo sapiens, UniProt P00519+Q13671); type: functional;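 note: biochemical TR-FRET dose-response test measuring inhibition of binding between Rin1 and Abl proteins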
Sequence of Ras and Rab interactor 1/Tyrosine-protein kinase ABL1 (P00519 whole entry): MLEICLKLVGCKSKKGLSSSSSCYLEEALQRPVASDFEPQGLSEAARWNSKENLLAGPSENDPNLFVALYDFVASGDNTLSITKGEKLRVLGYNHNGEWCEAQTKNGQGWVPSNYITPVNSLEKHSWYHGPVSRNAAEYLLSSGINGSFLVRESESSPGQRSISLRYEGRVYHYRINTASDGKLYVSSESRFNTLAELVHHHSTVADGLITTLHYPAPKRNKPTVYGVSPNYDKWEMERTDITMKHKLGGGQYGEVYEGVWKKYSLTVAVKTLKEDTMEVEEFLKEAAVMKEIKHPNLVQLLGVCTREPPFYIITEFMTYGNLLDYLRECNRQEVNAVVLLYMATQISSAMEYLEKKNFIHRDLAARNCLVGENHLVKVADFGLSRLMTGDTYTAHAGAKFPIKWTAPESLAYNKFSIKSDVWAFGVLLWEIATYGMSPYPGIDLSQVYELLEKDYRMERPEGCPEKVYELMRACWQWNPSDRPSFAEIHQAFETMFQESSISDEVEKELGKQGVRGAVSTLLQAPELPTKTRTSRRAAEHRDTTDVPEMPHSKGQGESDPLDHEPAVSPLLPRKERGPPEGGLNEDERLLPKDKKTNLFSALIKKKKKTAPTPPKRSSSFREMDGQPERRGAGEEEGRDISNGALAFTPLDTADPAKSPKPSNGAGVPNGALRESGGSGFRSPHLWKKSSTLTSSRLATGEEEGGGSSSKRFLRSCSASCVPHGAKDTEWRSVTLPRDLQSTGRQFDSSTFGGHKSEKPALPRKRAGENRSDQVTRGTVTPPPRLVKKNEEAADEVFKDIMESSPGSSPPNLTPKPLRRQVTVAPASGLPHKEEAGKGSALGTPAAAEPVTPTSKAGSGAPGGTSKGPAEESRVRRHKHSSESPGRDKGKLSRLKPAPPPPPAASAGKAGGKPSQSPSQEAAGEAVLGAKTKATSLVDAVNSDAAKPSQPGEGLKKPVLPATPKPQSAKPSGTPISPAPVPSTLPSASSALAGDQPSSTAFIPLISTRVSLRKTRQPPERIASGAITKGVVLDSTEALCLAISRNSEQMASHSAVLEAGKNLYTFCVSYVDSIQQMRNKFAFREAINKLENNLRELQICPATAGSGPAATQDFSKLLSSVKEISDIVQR
Sequence of Ras and Rab interactor 1/Tyrosine-protein kinase ABL1 (Q13671 whole entry): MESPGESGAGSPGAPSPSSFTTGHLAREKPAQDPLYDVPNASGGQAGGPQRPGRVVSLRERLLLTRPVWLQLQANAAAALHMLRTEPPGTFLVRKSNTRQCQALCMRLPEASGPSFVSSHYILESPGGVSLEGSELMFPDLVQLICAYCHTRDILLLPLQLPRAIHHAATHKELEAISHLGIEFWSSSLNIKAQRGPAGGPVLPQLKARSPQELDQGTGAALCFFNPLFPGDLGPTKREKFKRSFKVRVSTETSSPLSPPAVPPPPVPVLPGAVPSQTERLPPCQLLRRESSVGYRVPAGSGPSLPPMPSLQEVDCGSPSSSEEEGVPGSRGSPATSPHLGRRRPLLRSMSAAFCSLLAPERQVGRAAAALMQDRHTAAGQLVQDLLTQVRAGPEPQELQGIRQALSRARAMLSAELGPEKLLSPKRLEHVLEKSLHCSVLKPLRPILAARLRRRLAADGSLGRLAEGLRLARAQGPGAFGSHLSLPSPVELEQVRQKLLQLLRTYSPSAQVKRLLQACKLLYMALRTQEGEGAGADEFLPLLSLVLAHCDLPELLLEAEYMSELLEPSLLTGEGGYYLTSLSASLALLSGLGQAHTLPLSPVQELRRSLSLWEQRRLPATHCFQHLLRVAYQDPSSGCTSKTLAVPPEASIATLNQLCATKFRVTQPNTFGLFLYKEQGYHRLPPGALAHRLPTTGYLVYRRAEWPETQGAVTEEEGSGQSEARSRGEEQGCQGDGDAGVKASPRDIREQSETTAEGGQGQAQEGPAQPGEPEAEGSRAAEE

[4] = target: Intestinal-type alkaline phosphatase (Homo sapiens, UniProt P09923); test: activation of human intestinal alkaline phosphatase – biochemical, dose response (AID 488873); type: functional
Sequence of Intestinal-type alkaline phosphatase (Homo sapiens, UniProt P09923) (P09923 whole entry): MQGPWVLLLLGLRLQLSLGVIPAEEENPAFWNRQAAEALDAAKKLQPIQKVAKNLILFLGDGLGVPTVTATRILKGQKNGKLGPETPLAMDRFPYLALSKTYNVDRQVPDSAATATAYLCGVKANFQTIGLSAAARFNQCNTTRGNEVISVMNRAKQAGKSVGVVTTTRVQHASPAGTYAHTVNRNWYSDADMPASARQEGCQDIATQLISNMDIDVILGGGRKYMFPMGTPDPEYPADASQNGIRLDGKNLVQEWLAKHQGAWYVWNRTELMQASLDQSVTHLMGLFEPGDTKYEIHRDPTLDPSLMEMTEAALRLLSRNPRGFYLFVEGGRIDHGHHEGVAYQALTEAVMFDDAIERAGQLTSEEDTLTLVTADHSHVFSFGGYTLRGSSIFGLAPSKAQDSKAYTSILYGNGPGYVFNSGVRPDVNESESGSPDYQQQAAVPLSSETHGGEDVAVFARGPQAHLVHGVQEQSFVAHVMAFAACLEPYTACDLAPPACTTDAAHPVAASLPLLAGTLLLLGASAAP

Large T antigen = Large T antigen (Simian virus 40, UniProt P03070); type: functional, Betapolyomavirus macacae;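 note: Confirmatory-stage PubChem screen for compounds that inhibit SV40 T antigen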
Sequence of Large T antigen (P03070 whole entry): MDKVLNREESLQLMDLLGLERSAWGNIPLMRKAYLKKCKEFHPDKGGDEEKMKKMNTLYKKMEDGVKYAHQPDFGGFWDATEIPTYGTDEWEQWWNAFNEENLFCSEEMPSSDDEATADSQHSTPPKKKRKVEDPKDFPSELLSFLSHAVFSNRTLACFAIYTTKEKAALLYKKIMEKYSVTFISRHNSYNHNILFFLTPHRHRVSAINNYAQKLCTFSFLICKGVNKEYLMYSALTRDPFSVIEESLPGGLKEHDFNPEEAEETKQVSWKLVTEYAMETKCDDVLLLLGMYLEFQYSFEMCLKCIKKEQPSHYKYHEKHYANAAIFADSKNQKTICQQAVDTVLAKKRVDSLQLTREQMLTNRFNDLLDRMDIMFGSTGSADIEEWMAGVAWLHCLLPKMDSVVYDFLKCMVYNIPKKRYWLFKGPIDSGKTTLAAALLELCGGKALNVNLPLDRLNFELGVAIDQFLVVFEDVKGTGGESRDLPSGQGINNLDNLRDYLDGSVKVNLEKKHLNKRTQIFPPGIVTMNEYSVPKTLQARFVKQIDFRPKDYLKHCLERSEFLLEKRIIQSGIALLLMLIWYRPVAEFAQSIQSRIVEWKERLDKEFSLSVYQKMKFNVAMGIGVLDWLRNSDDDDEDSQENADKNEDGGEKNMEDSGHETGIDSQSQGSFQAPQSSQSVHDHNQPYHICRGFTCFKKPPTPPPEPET

[5] = target: Intestinal-type alkaline phosphatase (Mus musculus, UniProt P24822); test: PubChem AID 488785; type: functional
Sequence of Intestinal-type alkaline phosphatase (Mus musculus, UniProt P24822) (P24822 whole entry): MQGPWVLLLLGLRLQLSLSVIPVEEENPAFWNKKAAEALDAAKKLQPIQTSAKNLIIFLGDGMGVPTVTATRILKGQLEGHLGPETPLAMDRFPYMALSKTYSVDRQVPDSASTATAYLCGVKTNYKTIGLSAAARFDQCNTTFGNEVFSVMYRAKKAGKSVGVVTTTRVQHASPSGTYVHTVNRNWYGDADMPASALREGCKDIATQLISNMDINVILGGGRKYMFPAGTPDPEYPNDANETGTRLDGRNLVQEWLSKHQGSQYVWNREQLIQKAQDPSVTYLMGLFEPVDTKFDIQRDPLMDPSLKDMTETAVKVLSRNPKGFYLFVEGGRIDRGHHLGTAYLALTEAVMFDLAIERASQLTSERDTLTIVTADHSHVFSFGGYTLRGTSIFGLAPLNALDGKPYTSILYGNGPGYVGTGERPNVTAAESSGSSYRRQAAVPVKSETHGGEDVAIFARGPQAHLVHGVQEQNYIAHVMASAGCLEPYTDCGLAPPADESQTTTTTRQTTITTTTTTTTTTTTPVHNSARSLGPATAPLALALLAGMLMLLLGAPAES

[6] = target: T3, Alkaline phosphatase, tissue-nonspecific isozyme (Homo sapiens, UniProt P05186); test: TNAP enzyme inhibition by screening hits, dose response, selectivity assay for mouse IAP inhibitor project, biochemical, human TNAP, uHTS hits (AID 488906); type: functional
T3 sequence (P05186 whole entry): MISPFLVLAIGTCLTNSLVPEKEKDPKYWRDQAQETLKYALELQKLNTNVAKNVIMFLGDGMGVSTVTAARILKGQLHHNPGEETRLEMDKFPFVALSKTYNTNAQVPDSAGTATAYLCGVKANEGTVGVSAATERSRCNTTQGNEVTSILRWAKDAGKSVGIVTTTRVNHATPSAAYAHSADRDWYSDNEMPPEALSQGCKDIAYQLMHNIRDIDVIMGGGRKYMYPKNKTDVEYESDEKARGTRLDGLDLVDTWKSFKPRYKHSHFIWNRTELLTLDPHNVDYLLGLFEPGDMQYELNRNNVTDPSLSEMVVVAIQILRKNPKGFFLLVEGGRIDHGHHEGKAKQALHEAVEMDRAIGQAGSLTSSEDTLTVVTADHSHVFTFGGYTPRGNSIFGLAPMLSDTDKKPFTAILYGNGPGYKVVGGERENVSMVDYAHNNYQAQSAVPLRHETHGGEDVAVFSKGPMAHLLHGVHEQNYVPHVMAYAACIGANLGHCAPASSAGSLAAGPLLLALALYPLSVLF

[7] = target: T4, RNA-binding protein pos-1 (Caenorhabditis elegans, UniProt G5EF15); test: disruptors of C. elegans POS-1 RNA interaction – biochemical, fluorescence polarization, dose response (AID 1964);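 note: purified POS-1 fused to maltose binding protein made in E. coli; potency of compounds blocking POS-1 binding to fluorescent RNA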
T4 sequence (G5EF15 whole entry): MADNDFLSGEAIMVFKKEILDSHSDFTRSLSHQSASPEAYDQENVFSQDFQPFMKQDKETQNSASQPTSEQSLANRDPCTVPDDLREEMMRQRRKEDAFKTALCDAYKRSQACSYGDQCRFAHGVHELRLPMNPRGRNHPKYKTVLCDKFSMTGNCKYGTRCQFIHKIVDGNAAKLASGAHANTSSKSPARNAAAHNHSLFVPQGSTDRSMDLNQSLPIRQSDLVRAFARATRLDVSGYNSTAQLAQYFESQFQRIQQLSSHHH

Albumin = Albumin (Bos taurus, UniProt P02769); test: Counterscreen for inhibitors of T-cell receptor (TCR)-CD3 interaction: Fluorescence-based biochemical high throughput dose response assay to identify inhibitors of T-cell receptor (TCR)-CD3 interaction using a TAMRA-labeled BSA probe.; type: functional
Sequence of Albumin (P02769 whole entry): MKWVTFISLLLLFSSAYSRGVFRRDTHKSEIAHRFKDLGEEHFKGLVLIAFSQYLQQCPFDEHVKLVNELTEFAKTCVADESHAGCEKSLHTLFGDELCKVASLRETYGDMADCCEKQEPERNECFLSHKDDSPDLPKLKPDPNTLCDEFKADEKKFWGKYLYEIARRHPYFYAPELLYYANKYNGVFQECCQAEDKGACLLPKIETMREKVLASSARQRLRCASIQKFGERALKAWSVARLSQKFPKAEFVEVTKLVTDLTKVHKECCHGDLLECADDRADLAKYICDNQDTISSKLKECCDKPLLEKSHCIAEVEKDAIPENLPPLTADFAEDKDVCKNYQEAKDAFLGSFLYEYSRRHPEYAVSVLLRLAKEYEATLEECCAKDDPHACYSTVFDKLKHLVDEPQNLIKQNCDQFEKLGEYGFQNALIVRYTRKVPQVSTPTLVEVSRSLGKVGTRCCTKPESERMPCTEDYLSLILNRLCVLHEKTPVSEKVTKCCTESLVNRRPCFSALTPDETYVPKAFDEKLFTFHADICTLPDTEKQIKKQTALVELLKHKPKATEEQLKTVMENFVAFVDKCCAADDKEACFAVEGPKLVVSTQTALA

Leucine aminopeptidase = target: T5, Leucine aminopeptidase (Plasmodium falciparum 3D7, UniProt Q8IL11); test: P. falciparum M17LAP inhibitors, primary screen, biochemical, fluorogenic H-Leu-NHMec substrate, 1536-well (AID 1619); type: functional
T5 sequence (Q8IL11 whole entry): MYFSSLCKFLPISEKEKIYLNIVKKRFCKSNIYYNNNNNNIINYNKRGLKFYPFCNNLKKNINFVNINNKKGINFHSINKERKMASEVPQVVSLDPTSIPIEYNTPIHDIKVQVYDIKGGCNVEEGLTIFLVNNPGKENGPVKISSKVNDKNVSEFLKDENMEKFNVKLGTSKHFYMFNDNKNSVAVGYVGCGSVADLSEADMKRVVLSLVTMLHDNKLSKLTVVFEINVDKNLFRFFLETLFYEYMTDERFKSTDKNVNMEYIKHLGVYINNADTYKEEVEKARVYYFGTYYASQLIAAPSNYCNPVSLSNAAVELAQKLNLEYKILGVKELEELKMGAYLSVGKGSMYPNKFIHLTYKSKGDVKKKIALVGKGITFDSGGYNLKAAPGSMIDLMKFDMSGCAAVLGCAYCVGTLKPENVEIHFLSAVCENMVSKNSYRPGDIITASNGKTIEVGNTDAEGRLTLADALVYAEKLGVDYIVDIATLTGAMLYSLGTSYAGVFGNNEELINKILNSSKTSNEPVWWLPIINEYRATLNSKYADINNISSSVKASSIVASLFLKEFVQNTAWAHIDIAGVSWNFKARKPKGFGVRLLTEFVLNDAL

[8] = target: Peroxisome proliferator-activated receptor gamma/Nuclear receptor coactivator 2 (Homo sapiens, UniProt P37231); test: (§1) TR-FRET dose response biochemical High Throughput Screening assay for agonists of the steroid receptor coactivator 2 (SRC-2) recruitment by the peroxisome proliferator-activated receptor gamma (PPAR gamma): non-selective agonists. [Related pubchem assays: 1297, 1032 ]; type: functional
[9] = target: Peroxisome proliferator-activated receptor gamma/Nuclear receptor coactivator 1 (Homo sapiens, UniProt P37231); test: as §1, with “1 (SRC-1)” for “2 (SRC-2)”, “assays (depositor defined):AID1300, AID1808, AID504735, AID631]” for “assays: 1297, 1032 ]”; type: protein assay
[10] = target: Peroxisome proliferator-activated receptor gamma/Nuclear receptor coactivator 3 (Homo sapiens, UniProt P37231); test: as §1, with “3 (SRC-3)” for “2 (SRC-2)”, “1301 (Confirmation screen.), 1048 (Primary screen.)]” for “1297, 1032 ]”; type: functional
[11] = target: T6, Tyrosine-protein phosphatase non-receptor type 22 (Homo sapiens, UniProt Q9Y2R2); test: SAR LYP1 Fluorescent Assay using pCAP substrate for In Vitro dose response studies - Set 2. [Related pubchem assays (depositor defined):AID1779, AID1784, AID2135, AID449727]; type: functional
T6 sequence (Q9Y2R2 whole entry): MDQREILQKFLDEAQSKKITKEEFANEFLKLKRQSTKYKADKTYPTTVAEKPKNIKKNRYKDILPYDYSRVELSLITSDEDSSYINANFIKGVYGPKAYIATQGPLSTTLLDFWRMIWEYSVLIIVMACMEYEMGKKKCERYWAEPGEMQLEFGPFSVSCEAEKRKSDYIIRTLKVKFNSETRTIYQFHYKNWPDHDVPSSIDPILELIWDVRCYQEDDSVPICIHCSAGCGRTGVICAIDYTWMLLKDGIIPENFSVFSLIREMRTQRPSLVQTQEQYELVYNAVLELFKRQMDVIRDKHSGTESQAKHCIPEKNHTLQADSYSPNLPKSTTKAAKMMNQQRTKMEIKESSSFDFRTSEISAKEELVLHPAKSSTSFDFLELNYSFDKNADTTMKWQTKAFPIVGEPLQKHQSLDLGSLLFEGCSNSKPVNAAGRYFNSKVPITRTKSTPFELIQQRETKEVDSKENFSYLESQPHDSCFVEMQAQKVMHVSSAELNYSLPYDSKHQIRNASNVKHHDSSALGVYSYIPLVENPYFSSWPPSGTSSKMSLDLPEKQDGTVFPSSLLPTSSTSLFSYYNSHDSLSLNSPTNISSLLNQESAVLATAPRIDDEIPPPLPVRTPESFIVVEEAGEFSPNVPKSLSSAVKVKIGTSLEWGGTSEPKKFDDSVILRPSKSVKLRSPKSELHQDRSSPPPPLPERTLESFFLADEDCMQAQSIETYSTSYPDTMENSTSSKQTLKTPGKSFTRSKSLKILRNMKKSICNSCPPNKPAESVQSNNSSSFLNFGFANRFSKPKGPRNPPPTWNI

[12] = target: T7, Tyrosine-protein phosphatase non-receptor type 7 (Homo sapiens, UniProt P35236); test: inhibition of hematopoietic tyrosine phosphatase HePTP – biochemical, set 2, SAR follow-up (AID 449736); type: functional
T7 sequence (P35236 whole entry): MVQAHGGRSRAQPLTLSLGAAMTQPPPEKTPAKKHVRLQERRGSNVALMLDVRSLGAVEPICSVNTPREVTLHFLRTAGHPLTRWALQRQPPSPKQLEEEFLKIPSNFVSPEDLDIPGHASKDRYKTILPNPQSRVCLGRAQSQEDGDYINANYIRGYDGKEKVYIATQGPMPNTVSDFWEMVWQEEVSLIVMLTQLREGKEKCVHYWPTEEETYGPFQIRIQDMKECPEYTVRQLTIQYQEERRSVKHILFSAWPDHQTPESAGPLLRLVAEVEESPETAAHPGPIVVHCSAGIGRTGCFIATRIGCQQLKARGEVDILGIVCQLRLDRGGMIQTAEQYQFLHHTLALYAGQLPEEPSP

[13] = target: T6, Tyrosine-protein phosphatase non-receptor type 22; test: inhibition of lymphoid tyrosine phosphatase LYP – biochemical, pCAP fluorogenic substrate, fluorescence, set 3, SAR follow-up (AID 449727); type: functional
[14] = target: T6, Tyrosine-protein phosphatase non-receptor type 22; test: SAR LYP1 Fluorescent Assay using OMFP substrate for In Vitro dose response studies - Set 2. [Related pubchem assays (depositor defined):AID1779, AID1784, AID2140, AID449726, AID488869]; type: functional
[15] = target: Tyrosine-protein phosphatase non-receptor type 12 (Homo sapiens, UniProt Q05209); test: SAR Selectivity Analysis of small molecule inhibitors of PEST using pCAP in a fluorescence assay. [Related pubchem assays (depositor defined):AID1779, AID1784, AID2135]; type: functional
[16] = target: T6, Tyrosine-protein phosphatase non-receptor type 22; test: SAR LYP1 Fluorescent Assay using OMFP substrate for In Vitro dose response studies - Set 3. [Related pubchem assays (depositor defined):AID1779, AID1784, AID2140, AID2686]; type: functional

Structure (SMILES): Oc1ccc(C[C@H]2NCCc3cc(O)c(O)cc32)cc1O
- IC50 [1]: 0.47 µM (active)
- EC50 [2]: 5.43 µM (active)
- IC50 [3]: 2.33 µM (active)
- EC50 [4]: > 100 µM (inactive)
- IC50 (Large T antigen): 9.06 µM (active)
- IC50 [5]: 8.06 µM (active)
- IC50 [6]: 10.1 µM (active)
- EC50 [7]: 6.36 µM (active)
- IC50 (Albumin): > 94.1 µM (inactive)

Structure (SMILES): CCc1nnc(NS(=O)(=O)c2ccc(N/C=C\C(=O)c3cccc4ccccc34)cc2)s1
- IC50 (Leucine aminopeptidase): 10.1 µM (active)
- EC50 [8]: > 79.4 µM (not active)
- EC50 [9]: > 79.4 µM (inactive)
- EC50 [10]: > 8.82 µM (not active)

Structure (SMILES): CCOc1cc(C=NNC(=O)c2ccc(-c3csc(Nc4ccc(C)cc4)n3)cc2)ccc1OCC(=O)O
- IC50 [11]: 4.42 µM (active)
- IC50 [12]: 1.91 µM (active)
- IC50 [13]: 4.27 µM (active)
- IC50 [14]: 5.13 µM (active)
- IC50 [15]: 1 µM (active)
- IC50 [16]: 1.04 µM (active)
